This is an account of results in paper PMC3469269 (ACS medicinal chemistry letters, 2012).

In assay [1] the test system is DAT. The conditions noted are these: ref Vaughan et al., unpublished observations; cited from earlier work.
For assay [2], the system named is DAT. To be noted: cited from earlier work.
Another assay concerns the target hDAT (Homo sapiens, UniProt Q01959). The assay can be described thus: Inhibition of [3H]-WIN-35,428 binding to hDAT in N2A neuroblastoma cells.

Sequence of hDAT (Q01959 whole entry): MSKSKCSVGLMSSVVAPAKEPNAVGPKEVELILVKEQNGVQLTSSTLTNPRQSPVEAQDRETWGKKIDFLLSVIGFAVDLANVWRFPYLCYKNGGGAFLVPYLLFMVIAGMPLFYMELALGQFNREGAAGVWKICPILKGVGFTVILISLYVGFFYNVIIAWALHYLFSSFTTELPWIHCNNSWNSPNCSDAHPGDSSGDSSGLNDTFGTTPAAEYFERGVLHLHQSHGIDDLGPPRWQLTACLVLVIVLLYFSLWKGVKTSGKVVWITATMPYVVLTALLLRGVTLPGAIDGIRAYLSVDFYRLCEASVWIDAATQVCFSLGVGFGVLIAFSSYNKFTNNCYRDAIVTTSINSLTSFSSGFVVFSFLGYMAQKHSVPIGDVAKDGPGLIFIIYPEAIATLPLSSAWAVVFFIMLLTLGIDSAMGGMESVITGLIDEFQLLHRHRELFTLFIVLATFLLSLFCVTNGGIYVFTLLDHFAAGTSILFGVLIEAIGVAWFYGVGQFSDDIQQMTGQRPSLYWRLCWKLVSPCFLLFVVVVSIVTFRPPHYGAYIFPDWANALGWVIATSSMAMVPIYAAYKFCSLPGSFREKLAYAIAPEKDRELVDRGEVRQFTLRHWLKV

In the case of `COC(=O)C1C(c2ccc(N=[N+]=[N-])c(I)c2)CC2CCC1N2C` (stereo not shown) [compound 5, 3-(4′-azido-3′-iodo-phenyl)-8-methyl-8-aza-bicyclo-[3.2.1]octane-2-carboxylic acid methyl ester], the “labeling of the DAT in immunoprecipitation and proteolysis experiments” value in the assay with DAT [1] is “fails to label the DAT”. Besides, in the assay with DAT [2], the “binding to the DAT” value is listed as “high affinity, wash-resistant binding”. Regarding `COC(=O)[C@H](c1ccc(N)c(I)c1)[C@H]1CCCCN1` (racemic) [(±)-14], the “fold decrease in binding affinity for hDAT” value on hDAT (relative to aniline (±)-13 (addition of 3-I)) is ~ 1.4 fold.

On to `COC(=O)[C@H](c1ccc(N=[N+]=[N-])c(I)c1)[C@H]1CCCCN1` (racemic) [(±)-6, (±)-threo-4-Azido-3-iodomethylphenidate], for which, at hDAT (relative to (±)-14 (aniline replaced by azide)), the “fold increase in hDAT affinity” value was ~ 2.3 fold.
